Data taken from patent publication US5216014A, “Furo-coumarinsulfonamides as protein kinase C inhibitors” (Sphinx Pharmaceuticals Corporation, priority 1991, dated 1993).
pIC50: −log10 of the molar value.

Assays:
[1] = molecular target: cAMP dependent protein kinase (PKA); assay: cAMP Dependent Protein Kinase (PKA) Assay; assay type: biochemical; conditions: 10 min; catalytic subunit of PKA
Protocol: Compounds found to be inhibitors of protein kinase C activity are tested for inhibitory activity against protein kinase (PKA). This enzyme, like protein kinase C, plays an important role in cell-cell communication and is activated by a second messenger, cAMP. Secondary screening against PKA is useful for ascertaining the selectivity of the compounds of the invention. A cAMP dependent protein kinase assay utilizes a catalytic subunit of PKA (Sigma Chemical Company, St. Louis, Missouri) that is mixed with buffer before addition of the inhibitor in dimethylsulfoxide (DMSO). The assay is started by the addition of ^32 P-ATP and the reaction is allowed to proceed for 10 min before stopping with 25% trichloroacetic acid (TCA) and 1.0 mg/ml bovine serum albumin (BSA). The phosphorylated protein is isolated by filtration and the radioactivity is counted in a beta scintillation counter.
PKA assay results are shown in Table 5 in the column labeled PKA. […] The tested compounds of the invention are selective for protein kinase C, and have no effect on cAMP dependent protein kinase. This is seen by a comparison of Tables 3 and 5. […] Thus, the compounds of the invention should have minimal or no effect on the metabolic pathways associated with stimulation of protein kinase by cAMP.

neutrophils = assay: Neutrophil Superoxide Anion (O2 -) Release Assay; assay type: cell-based; conditions: Homo sapiens, 0.5 h, PMA-stimulated, 37° C. for 30 min
Protocol: Neutrophils are isolated form whole blood collected from human volunteers. All reagent materials are obtained from Sigma Chemical Company with the exception of isotonic saline (Travenol Laboratories, Inc., Deerfield, Ill.) and lymphocyte separation medium (Organon Teknika, Durham, N.C.).
Whole blood is drawn and mixed with sodium heparin (final conc. 10 units/ml) to prevent clotting. An equal volume of dextran (3.0%) in isotonic saline is added, mixed, and allowed to settle for 30 min to bind red blood cells (RBC). Supernatant is removed, underlayered with lymphocyte separation medium and centrifuged for 40 min at 400 xg in a centrifuge (Beckman GPR, Norcross, Ga.). The pellet is alternately resuspended in 0.2% and 1.6% NaCl to lyse RBCs before washing with Hank's Balanced Salt Solution (HBSS). The washed pellet is resuspended in 10 ml HBSS and placed on ice before counting on a hemacytometer.
The neutrophil cell concentration is adjusted to 2×10^6 cells/ml with HBSS before adding 0.8 ml cells to 12×75 mm polypropylene test tubes (Fisher Scientific). Test agents are diluted to determine dose response and added at 10X final concentration at a volume of 0.1 ml/tube in duplicate. Then 10X concentrations of cytochrome C (15 mg/ml) with catalase (3000 units/ml) either alone or containing 25 ng/ml phorbol 12-myristate 13-acetate (PMA) are added at a volume of 0.1 ml/tube and incubated at 37° C. for 30 min before stopping the reaction by placing tubes on ice. Tubes are then centrifuged at 900 xg for 10 min, 0.5 ml supernatant is removed and added to 0.5 ml H2 O in a microcuvette. Optical density (OD) of cytochrome c is read in a spectrophotometer (Shimadzu) at 550 nm. The ΔOD of cytochrome c is obtained between PMA-stimulated and non-stimulated tubes, and the dose responses of the test agents are compared to the positive controls (which contain HBSS in place of test agents). PMA stimulates O2 production which reduces cytochrome c. Reducing cytochrome c increases its absorbance, and the change in OD of cytochrome c is proportional to the amount of O2 produced by PMA stimulation. Inhibition of the O2 - burst by test compounds of the invention is seen as a reduction in the change in optical density. Inhibition is expressed as IC50 μM and is the amount of test compound that will inhibit fifty percent of the PMA-stimulated respiratory burst, i.e. O2 production.

[2] = Solubility remark in tumor cell growth test; assay type: physicochemical; design: key: *: indicates that the compound was too insoluble to test; conditions: footnote mark in Table 6
[3] = tested on: human keratinocytes (NHEK cells); assay: Human Keratinocyte Inhibition (3H-thymidine incorporation); assay type: cell-based
Protocol: Proliferating keratinocytes (NHEK cells purchased from Clonetics, Inc., San Diego, Calif.) in second passage were grown in Keratinocyte Growth Medium (KGM) (Clonetics, Inc.) Cells are trypsinized (0.025% trypsin, Clonetics), counted with a hemacytometer (Scientific Products), and seeded at a concentration of 2,500 cells/well in a 96 well microtiter plate. After allowing cells to attach to the surface overnight, the culture medium is aspirated and replaced with […] of fresh KGM. Test agents are evaluated and IC50,s are ^3 H-thymidine determined according to the ^3 H-thymidine incorporation procedures described as in Example 8. IC50 is the concentration of test compound required to inhibit fifty percent of the incorporation of H-thymidine into proliferating cells not exposed to test agent.

protein kinase C = assay: Protein Kinase C Inhibition (PKC assay, histone H1 phosphorylation); assay type: biochemical; conditions: 10 minutes; histone H1 substrate; rat brain enzyme
Protocol: The protein kinase C (PKC) assay is designed to duplicate the in vivo conditions required for protein kinase C function. Therefore, pH, salt and cofactor concentrations are similar to physiologic levels. A lysine rich histone H1 is used in the assay as the phosphorylation acceptor protein because it is readily available and serves as a good substrate for protein kinase C. Enzyme is prepared from rat brain and is purified to apparent homogeneity as determined by a single band on silver stained sodium dodeceyl sulfate (SDS)-polyacrylamide.
In the screening assay, phosphatidylserine (PS) and diacylglycerol (DAG) are co-sonicated to form unilamellar and multilamellar vesicles. The concentrations of lipids in the assay are suboptimal to maximize the detection potential for inhibitors. Potential inhibitor compounds are added to the assay in dimethylsulfoxide (DMSO) at three concentrations to give final inhibitor concentrations of 4.3, 43 and 218 μm, respectively. The assay is started with the addition of enzyme and stopped after 10 minutes by the addition of a 25% trichloroacetic acid (TCA) solution and 1.0 mg/ml bovine serum albumin (BSA). The radioactive histone product is retained and washed on glass fiber filters that allow the unreacted ^32 P-ATP to pass through. The amount of phosphorylation is determined by the radioactivity as measured in a scintillation counter. Controls are included in every assay to measure: background activity in the absence of enzyme, activity in the absence of lipids, and the maximum enzyme activity with saturating levels of the activator lipids.
HEPES is N-[2-hydroxyethyl] piperazine-N'-[2-ethanesulfonic acid] and EGTA is Ethylene-bis(oxyethylenenitrilo) tetraacetic acid.
Protein kinase C assay results are shown in Table 3 in the column labeled PKC. Results are shown as IC50, which is the concentration of test compound needed to inhibit 50% of the protein kinase C activity as compared with levels of protein kinase C activity in controls.

MCF-7 = assay: Human Tumor Cell Growth Inhibition (3H-thymidine uptake); assay type: cell-based; conditions: MCF7; MCF-7 human breast tumor cell line; 18-24 hrs; read-out: MCF-7 (IC50, 3H-thymidine incorporation)
Description: MCF-7 a human breast tumor cell line and MCF-7/ADR an adriamycin resistant line of MCF-7 cells were obtained from the National Cancer Institute, Frederick, Md. CEM cells (ATCC accession number CCL 119) were obtained from the American Type Culture Collection, Rockville, Md.
Human tumor cells are trypsinized (0.05% trypsin, GIBCO), counted with a hemacytometer and seeded at a concentration of 10,000 cells/well in a 96 well microtiter plate. After allowing cells to attach to the surface overnight, the culture medium is aspirated and replaced with 100 μl of fresh medium. Test agents are diluted to determine dose response at 2X final concentration and added in quadruplicate at 100 μl/well to bring the total volume of each well to 200 μl. The microtiter plate is then incubated at 3 37° C. 5% CO2 overnight (18-24 hrs) before ^3 H-thymidine is added at a concentration of 0.5 μCi/well in 50 μl culture medium. The plate is incubated again for 4 hrs under the same conditions as above. Supernatant is then aspirated and 50 μl trypsin (0.05%, GIBCO) is added to each well. Cells are checked microscopically to determine detachment from surfaces, and plates are then harvested with a cell harvester (PHD, Cambridge Technology, Inc.) Filter papers corresponding to wells are placed in scintillation vials and counted to determine the amount of ^3 H-thymidine incorporated by the cells. […]

pIC50 [1]	pIC50 (neutrophils)	pIC50 [3]	pIC50 (protein kinase C)	pIC50 (MCF-7)	SMILES	MCF-7: too insoluble to test [2]
< 3.66	< 5.00	4.92	4.52		COc1c2occc2c(S(=O)(=O)NCCCNCCCCNCCCN)c2ccc(=O)oc12 [Compound 1, N-[3-[4-(3-amino-1-propyl)-amino-1-butyl]-amino-1-propyl]-s-methyl-furo[3,2-g]coumarin-5-sulfonamide]	*
< 3.66	< 5.00	5.85	4.62		COc1c2occc2c(S(=O)(=O)NCCCNCCCCNCCCNS(=O)(=O)c2c3ccoc3c(OC)c3oc(=O)ccc23)c2ccc(=O)oc12 [Compound 2]	*
< 3.66	< 5.00	4.81	4.68	5.26	COc1c2occc2c(S(=O)(=O)NCCCCNCCCNS(=O)(=O)c2c3ccoc3c(OC)c3oc(=O)ccc23)c2ccc(=O)oc12 [Compound 3]	
< 3.66	< 5.00	5.02	4.77	4.96	COc1c2occc2c(S(=O)(=O)NCCCN(C)CCCNS(=O)(=O)c2c3ccoc3c(OC)c3oc(=O)ccc23)c2ccc(=O)oc12 [Compound 4]	
			4.48		COc1c2occc2c(S(=O)(=O)NCCCNCCCNS(=O)(=O)c2c3ccoc3c(OC)c3oc(=O)ccc23)c2ccc(=O)oc12 [Compound 5]	
